These results are taken from US20240308956A1, “LIPOPHILIC LITHIUM SALTS FOR DIRECT DISSOLUTION IN ORGANIC SCINTILLATORS” (Lawrence Livermore National Security, LLC, priority 2022, published 2024).

The structures appear in SMILES notation.

The nature of series [1]: Solubility of lipophilic salts in liquids. The format is physicochemical. As to the method: (§1) Majority of tested compositions were prepared with ˜0.1 wt. % of atomic ^6Li, although a possibility of higher concentrations was also tested for some efficient formulations. For liquid preparations, solid constituents weighed in vials or glass jars at ambient condition were vacuumed and transferred into the nitrogen-filled glove box, where liquid components (EJ-309, DIPN, Tx-100, and IBA) were added for dissolution. Solutions were left to stirred overnight to reach equilibrium, then transferred into the quartz cuvettes, sealed, and removed from the glovebox. Unless indicated otherwise, measurements were made in small cylindrical cuvettes of Ø2 cm×1 cm in dimensions. For approximate evaluation of the attenuation, solutions of interest were also prepared and measured at larger scale in 2″×2″ (Ø5.1 cm×5.1 cm) quartz cuvettes.

Series [2] is described as follows: Long-term stability of loaded solutions to precipitation. Type of series: physicochemical. As to the method:
as §1

The conditions of series [3]: without surfactant; cited from earlier work.

Regarding `CCCCC(CC)COC(=O)CC(C(=O)OCC(CC)CCCC)S(=O)(=O)[O-].[Li+]` (centres unmarked) [^6LiDOSS, lithium 1,4-bis(2-ethylhexoxy)-1,4-dioxobutane-2-sulfonate], the “solubility of the compound in DIPN” value in series [1] (DIPN, studies of long-term stability) is given as “about 20 wt. %”. Moreover, in series [1] (organic fluids, of total scintillator), the “solubility in organic fluids” value is reported as “about 50 wt. %”. For the same molecule, in series [1] (without any additional dyes), the “solubility of the compound” value is recorded as “up to 40 wt. %”. Further, in series [2] (solution containing 0.5 wt. % of E404), the “^6Li concentration at which solutions are stable to solid precipitation” value is given as ≤ 0.3 wt. % ^6Li. Further, in series [2] (solutions containing 0.2 wt. % of atomic lithium), the “stability to long-term precipitation” value is on record as “stable to long-term precipitation”.

Turning to `CC(C)CC(=O)[O-].[6Li+]` [^6LiIVA, reference compound], the stability of solutions result in series [2] (single dye solutions in 90:10 DIPN:IBA) is given as “highly stable”. The “precipitation or LO degradation on storage” value in series [2] (single dye solutions in 95:5 DIPN:IBA, sealed samples, ~1 year of observations) was “no precipitation or LO degradation”.

With `O=C([O-])c1cccc(-c2ccccc2)c1O.[6Li+]` [^6LiPSA], the solubility in aromatics result in series [3] is listed as “slightly soluble”.
